In ChEMBL document CHEMBL1649342, “Synthesis of azafluorenone antimicrobial agents” (2010):
In brackets after ≈: the same amount, converted by molar mass.

Assays:
Assay type in all cases: functional
[1] = system: Saccharomyces cerevisiae; test: Antimicrobial activity against Saccharomyces cerevisiae IFO 0203
[2] = system: Bacillus subtilis; test: Antimicrobial activity against Bacillus subtilis IFO 3007
[3] = system: Staphylococcus aureus; test: Antimicrobial activity against Staphylococcus aureus NCTC 8530
[4] = system: Candida albicans; test: Antimicrobial activity against Candida albicans B311
[5] = system: Escherichia coli; test: Antimicrobial activity against Escherichia coli IFO 3545

- MIC [1]: 50 mg/L (≈ 256 µM)
- MIC [2]: 50 mg/L (≈ 256 µM)
- MIC [3]: 50 mg/L (≈ 256 µM)
- MIC [4]: 3.12 mg/L (≈ 16 µM)
- MIC [5]: 50 mg/L (≈ 256 µM)
Structure (SMILES): Cc1ccnc2c1C(=O)c1ccccc1-2 [ONYCHINE]
